Reference: ChEMBL document CHEMBL2029294, “Evaluation of endo- and exo-aryl-substitutions and central scaffold modifications on diphenyl substituted alkanes as 5-lipoxygenase activating protein inhibitors” (Bioorg Med Chem Lett, 2012)

Tests used:
[1] = target: T1, Arachidonate 5-lipoxygenase-activating protein (Homo sapiens, UniProt P20292); assay: Displacement of [125I]L-691,831 from 5-lipoxygenase-activating protein in human polymorphonuclear cells
T1 sequence (P20292 whole entry): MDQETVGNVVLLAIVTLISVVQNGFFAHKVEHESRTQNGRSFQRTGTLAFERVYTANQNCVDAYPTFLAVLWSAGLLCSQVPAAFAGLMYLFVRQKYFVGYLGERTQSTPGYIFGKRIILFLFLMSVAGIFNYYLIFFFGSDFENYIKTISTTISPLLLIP

[2] = target: T1, Arachidonate 5-lipoxygenase-activating protein; assay: Inhibition of 5-lipoxygenase-activating protein in human polymorphonuclear cells assessed as inhibition of calcium ionophore-induced LTB4 production in presence of human whole blood; type: tissue-based
[3] = Volume of distribution in Sprague-Dawley rat at 1 mg/kg, iv and 2 mg/kg, po; type: ADME, organism-based; details: in vivo
[4] = Oral bioavailability in Sprague-Dawley rat at 2 mg/kg; type: ADME, organism-based; details: in vivo
[5] = Clearance in Sprague-Dawley rat at 1 mg/kg, iv and 2 mg/kg, po; type: ADME, organism-based; details: in vivo
Rattus norvegicus = assay: Dose normalised AUC in Sprague-Dawley rat at 1 mg/kg, iv; type: ADME, organism-based; set-up: dose 1 mg/kg, route intravenous; details: in vivo
[6] = Cmax in Sprague-Dawley rat at 1 mg/kg, iv and 2 mg/kg, po; type: ADME, organism-based; details: in vivo
[7] = Half life in Sprague-Dawley rat at 1 mg/kg, iv and 2 mg/kg, po; type: ADME, organism-based; details: in vivo

SMILES	IC50 [1]	IC50 [2]	further results
COC(=O)c1ccc(OCc2ccc3ccccc3n2)cc1C(C)(C)c1ccccc1	58 nM	> 9000 nM	–
CCC(CC)(c1ccccc1)c1cc(OCc2ccc3ccccc3n2)ccc1C(=O)OC	96 nM	> 9000 nM	–
COC(=O)c1ccc(OCc2ccc3ccccc3n2)cc1C1(c2ccccc2)C2CCC1CC2 (centres undefined)	5.6 nM	1300 nM	–
COC(=O)c1ccc(OCc2ccc3ccccc3n2)cc1C1(c2ccccc2)CCCCC1	15 nM	1560 nM	–
COC(=O)c1ccc(OCc2ccc3ccccc3n2)cc1C1(c2ccccc2)CCCC1	8.5 nM	3700 nM	–
COC(=O)c1ccc(OCc2ccc3ccccc3n2)cc1C1(c2ccccc2)CCC1	20 nM	> 7000 nM	–
COC(=O)c1ccc(OCc2ccc3ccccc3n2)cc1C1(c2ccccc2)CC(C)C1 (centres undefined)	3.2 nM	1100 nM	–
COC(=O)c1ccc(OCc2ccc3ccccc3n2)cc1C1(c2ccccc2)CC(F)(F)C1	50 nM	> 9000 nM	–
COC(=O)c1ccc(OCc2ccc3ccccc3n2)cc1C1(c2ccccc2)CC(C)(C)C1	5.2 nM	1400 nM	–
O=c1[nH]nc(-c2ccc(OCc3ccc4ccccc4n3)cc2[C@@]2(c3ccccc3)C[C@H]3CC[C@H]2C3)o1	0.8 nM	469 nM	Vd [3]: 1 L/kg; bioavailability [4]: 12%; clearance [5]: 7.3 mL/min/kg; AUC/dose (Rattus norvegicus): 0.58 µM·kg·h/mg; Cmax [6]: 400 nM; half-life [7]: 1 h
COc1cccc([C@]2(c3cc(OCc4ccc5ccccc5n4)ccc3-c3n[nH]c(=O)o3)C[C@H]3CC[C@H]2C3)c1	1.1 nM	375 nM	Vd [3]: 0.7 L/kg; bioavailability [4]: 17%; clearance [5]: 7.2 mL/min/kg; AUC/dose (Rattus norvegicus): 0.79 µM·kg·h/mg; Cmax [6]: 670 nM; half-life [7]: 1.2 h
CC(C)(C)[C@@H](c1ccccc1)c1cc(OCc2ccc3ccccc3n2)ccc1-c1n[nH]c(=O)o1	1.9 nM	534 nM	Vd [3]: 5.3 L/kg; bioavailability [4]: 27%; clearance [5]: 29 mL/min/kg; AUC/dose (Rattus norvegicus): 0.34 µM·kg·h/mg; Cmax [6]: 250 nM; half-life [7]: 4.3 h
CC1(C)CC(c2ccccc2)(c2cc(OCc3ccc4ccccc4n3)ccc2-c2n[nH]c(=O)o2)C1	3.6 nM	834 nM	Vd [3]: 7.5 L/kg; bioavailability [4]: 9%; clearance [5]: 71 mL/min/kg; AUC/dose (Rattus norvegicus): 0.05 µM·kg·h/mg; Cmax [6]: 10 nM; half-life [7]: 1.7 h
CC1CC(c2ccccc2)(c2cc(OCc3ccc4ccccc4n3)ccc2-c2n[nH]c(=O)o2)C1 (mixture of isomers)	2.6 nM	695 nM	Vd [3]: 3.1 L/kg; bioavailability [4]: 17%; clearance [5]: 32 mL/min/kg; AUC/dose (Rattus norvegicus): 0.19 µM·kg·h/mg; Cmax [6]: 120 nM; half-life [7]: 2 h
COC(=O)c1ccc(OCc2ccc3ccccc3n2)cc1[C@]1(c2ccccc2)C[C@H]2CC[C@H]1C2 (racemic)	2.1 nM	460 nM	–
COC(=O)c1ccc(OCc2ccc3ccccc3n2)cc1[C@]1(c2ccccc2F)C[C@H]2CC[C@H]1C2 (racemic)	4 nM	1600 nM	–
COC(=O)c1ccc(OCc2ccc3ccccc3n2)cc1[C@]1(c2cccc(F)c2)C[C@H]2CC[C@H]1C2 (racemic)	2.3 nM	472 nM	–
COC(=O)c1ccc(OCc2ccc3ccccc3n2)cc1[C@]1(c2ccc(F)cc2)C[C@H]2CC[C@H]1C2 (racemic)	9.5 nM	1400 nM	–
COC(=O)c1ccc(OCc2ccc3ccccc3n2)cc1[C@]1(c2cccc(C)c2)C[C@H]2CC[C@H]1C2 (racemic)	5.5 nM	940 nM	–
COC(=O)c1ccc(OCc2ccc3ccccc3n2)cc1[C@]1(c2cccc(C(F)(F)F)c2)C[C@H]2CC[C@H]1C2 (racemic)	7.4 nM	> 8600 nM	–
COC(=O)c1ccc(OCc2ccc3ccccc3n2)cc1[C@]1(c2cccc(OC)c2)C[C@H]2CC[C@H]1C2 (racemic)	2.5 nM	322 nM	–

SMILES	IC50 [1]	IC50 [2]	further results
COC(=O)c1ccc(OCc2ccc3ccccc3n2)cc1[C@]1(c2cc(F)cc(F)c2)C[C@H]2CC[C@H]1C2 (racemic)	3.4 nM	1320 nM	–
COC(=O)c1ccc(OCc2ccc3ccccc3n2)cc1[C@]1(c2cc(C)cc(C)c2)C[C@H]2CC[C@H]1C2 (racemic)	3.5 nM	2300 nM	–
COC(=O)c1ccc(OCc2ccc3ccccc3n2)cc1C(c1ccccc1)C1CCCCC1 (racemic)	16 nM	> 9000 nM	–
COC(=O)c1ccc(OCc2ccc3ccccc3n2)cc1C(c1ccccc1)C(C)(C)C (racemic)	5.5 nM	670 nM	–
COC(=O)c1ccc(OCc2ccc3ccccc3n2)cc1C(CC(C)(C)C)c1ccccc1 (racemic)	3 nM	2000 nM	–
O=C(Nc1cccnc1)c1ccc(OCc2ccc3ccccc3n2)cc1[C@]1(c2ccccc2)C[C@H]2CC[C@H]1C2 (racemic)	5.8 nM	2160 nM	–
O=C(NC1CCCC1)c1ccc(OCc2ccc3ccccc3n2)cc1[C@]1(c2ccccc2)C[C@H]2CC[C@H]1C2 (racemic)	48 nM	964 nM	–
O=C(c1ccc(OCc2ccc3ccccc3n2)cc1[C@]1(c2ccccc2)C[C@H]2CC[C@H]1C2)N1CCCC1 (racemic)	7.1 nM	1730 nM	–
Cc1noc(-c2ccc(OCc3ccc4ccccc4n3)cc2[C@]2(c3ccccc3)C[C@H]3CC[C@H]2C3)n1 (racemic)	6.3 nM	1020 nM	–
Nc1nnc(-c2ccc(OCc3ccc4ccccc4n3)cc2[C@]2(c3ccccc3)C[C@H]3CC[C@H]2C3)o1 (racemic)	2.2 nM	258 nM	–
O=c1[nH]nc(-c2ccc(OCc3ccc4ccccc4n3)cc2[C@]2(c3ccccc3)C[C@H]3CC[C@H]2C3)o1 (racemic)	2.5 nM	796 nM	–
S=c1[nH]nc(-c2ccc(OCc3ccc4ccccc4n3)cc2[C@]2(c3ccccc3)C[C@H]3CC[C@H]2C3)o1 (racemic)	1.1 nM	753 nM	–
Cc1nnc(-c2ccc(OCc3ccc4ccccc4n3)cc2[C@]2(c3ccccc3)C[C@H]3CC[C@H]2C3)o1 (racemic)	5 nM	456 nM	–
c1ccc([C@@]2(c3cc(OCc4ccc5ccccc5n4)ccc3-c3nnco3)C[C@H]3CC[C@H]2C3)cc1 (racemic)	2.9 nM	376 nM	–
c1ccc([C@@]2(c3cc(OCc4ccc5ccccc5n4)ccc3-c3ncon3)C[C@H]3CC[C@H]2C3)cc1 (racemic)	5.4 nM	721 nM	–
Cc1nc(-c2ccc(OCc3ccc4ccccc4n3)cc2[C@]2(c3ccccc3)C[C@H]3CC[C@H]2C3)no1 (racemic)	1.6 nM	189 nM	–
c1ccc([C@@]2(c3cc(OCc4ccc5ccccc5n4)ccc3-c3nnn[nH]3)C[C@H]3CC[C@H]2C3)cc1 (racemic)	2.9 nM	5720 nM	–
Cn1nnc(-c2ccc(OCc3ccc4ccccc4n3)cc2[C@]2(c3ccccc3)C[C@H]3CC[C@H]2C3)n1 (racemic)	2.8 nM	313 nM	–
CCn1nnc(-c2ccc(OCc3ccc4ccccc4n3)cc2[C@]2(c3ccccc3)C[C@H]3CC[C@H]2C3)n1 (racemic)	2.4 nM	177 nM	–
CC(C)n1nnc(-c2ccc(OCc3ccc4ccccc4n3)cc2[C@]2(c3ccccc3)C[C@H]3CC[C@H]2C3)n1 (racemic)	1.7 nM	149 nM	–
FC(F)n1nnc(-c2ccc(OCc3ccc4ccccc4n3)cc2[C@]2(c3ccccc3)C[C@H]3CC[C@H]2C3)n1 (racemic)	2.4 nM	502 nM	–
